Here are results for six molecules from paper PMC3653934, “Identification of Adiponectin Receptor Agonist Utilizing a Fluorescence Polarization Based High Throughput Assay” (PLoS ONE, 2013).

Read-outs that look alike come from different tables or passages of the source. Where a SMILES comes first, the peptide text is derived from it. [ ]: non-standard residue; d: D form. Nva = CCC[C@H](N)C(=O)O

The target in test [1] is T1, AdipoR2 (UniProt Q86V24).
T1 sequence (Q86V24 1-386): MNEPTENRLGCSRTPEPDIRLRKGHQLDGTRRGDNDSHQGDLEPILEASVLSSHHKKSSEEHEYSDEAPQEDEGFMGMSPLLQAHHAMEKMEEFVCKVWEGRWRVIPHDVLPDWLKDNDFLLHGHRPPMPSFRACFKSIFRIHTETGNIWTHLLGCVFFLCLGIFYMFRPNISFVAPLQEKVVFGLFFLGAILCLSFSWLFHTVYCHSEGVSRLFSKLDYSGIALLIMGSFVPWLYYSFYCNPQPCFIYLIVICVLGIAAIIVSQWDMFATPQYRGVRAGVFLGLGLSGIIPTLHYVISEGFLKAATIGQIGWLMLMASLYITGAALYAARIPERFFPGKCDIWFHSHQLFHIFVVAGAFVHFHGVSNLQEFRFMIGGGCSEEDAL
The test is described as follows: Competitive FP assay, displacement of probe 1 from AdipoR2. The class given is binding, human. The protocol:
(§1) Unlabeled short peptide 3 was titrated against the FITC-labeled peptide and adiponectin receptor mixture. Plates were incubated at room temperature for up to 3 hours or 30 min at different temperatures. FP values were taken and IC50 values were calculated.
(§2) Master mixtures containing fluorescein-labeled probe 1 and adiponectin receptor (AdipoR1 or AdiopR2, 2 µM and probe 1 at 100 nM) in a reaction volume of 19 µl were prepared and loaded to plates. The library compounds (10 µM –0.078 µM, half dilutions) were prepared separately and transferred into the assay plates. The first and last columns of each plate were used as positive and negative control wells. Wells containing the drug only were used as controls to detect auto-fluorescence of the compounds in the total fluorescence assay. After subtraction of the background signal, data was processed and the IC50 values were determined by non-linear least square fitting using SigmaPlot 11.0.
(§3) Given that the present study is a screening study, peptide 3 was chosen as the positive control for cost-efficiency purposes.
(§4) To optimize the FP assay properly, it was necessary to assess the stability of the FP assay. The conditions for the FP assay were established by testing various parameters including incubation temperature, time, TF values, ΔmP values, and DMSO tolerance. […] In summary, the competitive FP binding assay conditions ideal for identifying adiponectin receptor agonists are: i) 2 µM adiponectin receptor, ii) 100 nM probe 1, iii) 5% final DMSO concentration (v/v), and iv) incubation for 30 min at 25°C before reading the plate.
(§5) A pilot screen against the natural product library of 10,000 compounds described above was performed at screening concentrations of 10 µM to 0.078 µM (half serial dilutions) in 5% DMSO (v/v). Controls present in each assay plate consisted of 5% DMSO (negative control) or peptide 3 (positive control).
(§6) We screened a library of 10,000 natural compounds for adiponectin agonists. […] 46 compounds that could generate IC50 curves were identified as initial hits.

Test [2] addresses T2, AdipoR1 (Homo sapiens, UniProt Q96A54).
T2 construct: The cDNAs encoding full-length of AdipoR1 or AdipoR2 were then sub-cloned into the mammalian expression vector pBEX and pcDNA3.1–Myc-His(+); His (C); Myc (C); made in house; host or cells: CHO cells
T2 sequence (Q96A54 1-375): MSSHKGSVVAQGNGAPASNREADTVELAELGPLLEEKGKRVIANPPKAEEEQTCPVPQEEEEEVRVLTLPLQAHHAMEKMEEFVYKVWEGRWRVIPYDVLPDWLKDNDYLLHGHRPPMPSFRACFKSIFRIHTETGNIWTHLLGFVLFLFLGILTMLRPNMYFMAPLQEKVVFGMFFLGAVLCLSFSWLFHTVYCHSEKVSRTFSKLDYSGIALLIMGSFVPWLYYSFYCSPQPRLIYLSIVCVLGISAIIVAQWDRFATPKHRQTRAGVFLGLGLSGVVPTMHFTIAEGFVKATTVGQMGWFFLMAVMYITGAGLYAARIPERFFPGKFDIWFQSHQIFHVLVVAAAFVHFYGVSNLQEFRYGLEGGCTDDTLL
The test is described as follows: Competitive FP assay, displacement of probe 1 from AdipoR1. The class given is binding. The method, then: as §1, §2, §3, §4, §5, §6

For test [3], the system named is MCF-7 cells. The test is described as follows: Cell viability assay (CellTiter-Blue) in MCF-7 cells. It counts as cell-based. The conditions noted are these: Homo sapiens, read-out: IC50 (µM) MCF-7 cells, cell viability. The method, then:
(§7) All cell lines were obtained from the American Type Culture Collection (ATCC). MCF-7 and MDA-MB-231 cells were maintained in DMEM containing 10% fetal bovine serum and supplied with 1% penicillin/streptomycin. All cells were maintained in a 5% CO2 atmosphere at 37°C.
(§8) The effects of the lead compounds on cell proliferation were tested in MCF-7 and MDA-MB-231 cells. Cells were grown to 80% confluence, harvested and aliquoted into 384-well plates in a total volume of 45 µl per well. The outer wells were inoculated with sterile water to minimize evaporation from the sample wells. Cells were allowed to attach overnight and 5 µl culture media containing either vehicles or drug were added. Cell proliferation was evaluated using CellTilter-Blue reagent (Promega, China) according to manufacturer’s instructions after 72-h incubation. Fluorescence was measured with an excitation at 530 nm and emission at 590 nm. After background subtraction, cell viability values were normalized to vehicle controls and expressed as percentage of the mean of the relative vehicle controls.
(§9) To further confirm the agonistic activity of hit compounds, MDA-MB-231 and MCF-7 cells were treated with different concentrations of g-Ad or drug (20 µM to 1.2 nM) for 72 hours and cell viability was measured. Thus, four compounds (arctiin, (-)-arctigenin, matairesinol and gramine) that show agonistic activity against adiponectin receptor 1 and four compounds (deoxyschizandrin, taxifoliol, syringing and parthenolide) that show agonistic activity against adiponectin receptor 2 were identified.

The subject of test [4] is PPARα phosphorylation (AdipoR2 signaling) in MCF-7 cells. The experiment in a line: Western blot of PPARα phosphorylation in MCF-7 cells. It counts as cell-based, human. Conditions: MCF-7 cells treated at IC50 concentration for 6 h. The method, then:
(§10) Cells were grown to 80% confluence, harvested and aliquoted into 100 mm dishes in serum free media. Cells were allowed to attach overnight and then the serum free media was removed and then cells were washed in PBS twice. Different doses of compounds were prepared in the normal media and added to different dishes for an additional 6 h. Cells were washed 3 times with ice-cold PBS and cell lysates were prepared by scraping cells into lysis buffer A (RIPA buffer, 2 mM dithiothreitol […], 1×Halt protease inhibitor cocktail (Thermo scientific), and 1×Halt phosphatase inhibitor cocktail (Thermo scientific)). The cells were allowed to swell on ice (5 min), after which the homogenate was centrifuged. The supernatants were transferred to fresh tubes and protein concentrations were determined using the Bio-Rad protein assay (Bio-Rad Laboratories, Inc.) per manufacturer’s instructions. Aliquots of the cell lysates were stored at −80°C.
(§11) Equal amounts of total protein (50 µg) were subjected to electrophoresis (10% tris-HCl, 1.0 mm gels) and transferred to nitrocellulose membranes. Membranes were blocked in TBS containing 0.05% Tween 20 (TBST) and 5% nonfat milk or 5% BSA for 1 hour at room temperature. Appropriately diluted primary antibodies were incubated in TBST/5% nonfat milk or TBST/5% BSA for 2 h at room temperature or overnight at 4 °C. Membranes were washed in TBST three times for 15 min each. Appropriately diluted secondary antibodies were incubated in superblock blocking buffers (Thermo Scientific) for 1 h at room temperature. Membranes were washed in TBST three times for 15 min. Proteins were detected by Amersham™ ECL plus western blotting detection system (GE healthcare). The following antibodies were used: anti-AdipoR1 M18, anti-AdipoR2 C12 (Santa Cruz Biotechnology, Santa Cruz, CA), anti-p-AMPKα(T172), anti-AMPKα, and anti-β-actin (Cell Signaling, Danvers, MA).
(§12) It is well established that adiponectin activates AMPK and p38 MAPK through AdipoR1 or PPARα through AdipoR2 to mediate its downstream signaling cascades, [9], [12], [14]. […] The levels of phosphorylation of AMPK and phosphorylation of PPARα were examined and the relative expression levels of the phospho-protein to the total expression of protein levels were quantified using ImageJ software (NIH) ( Fig. 3 ).
(§13) Figure 3 Effects of hit compounds on adiponectin receptor signaling pathways. […] A total 50 µg of cell lysate was loaded to each lane. Western blot was performed follow the protocol in materials and methods section.

Test [5] concerns MDA-MB-231 cells. The test is described as follows: Cell viability assay (CellTiter-Blue) in MDA-MB-231 cells. It counts as cell-based. Conditions: Homo sapiens, read-out: IC50 (µM) MDA-MB-231 cells, cell viability. The method, then: as §7, §8, §9
Test [6] concerns AMPK phosphorylation (AdipoR1 signaling) in MDA-MB-231 cells. The experiment in a line: Western blot of AMPK phosphorylation in MDA-MB-231 cells. The class given is cell-based, human. The conditions noted are these: MDA-MB-231 cells treated at IC50 concentration for 6 h. The protocol: as §10, §11, §12, §13
Setting [7] is: primary screen, 2 µM receptor, 100 nM probe 1, 30 min, 25°C, read-out: IC50 vs AdipoR1 (µM) Primary screen.
[8] abbreviates: validation, 2 µM receptor, 100 nM probe 1, 30 min, 25°C, read-out: IC50 vs AdipoR1 (µM) Validated.
The mark [9] stands for this setting: primary screen, 2 µM receptor, 100 nM probe 1, 30 min, 25°C, read-out: IC50 vs AdipoR2 (µM) Primary screen.
Where [10] appears, read: validation, 2 µM receptor, 100 nM probe 1, 30 min, 25°C, read-out: IC50 vs AdipoR2 (µM) Validated.

`O=c1cc(-c2ccccc2)oc2cc(O)cc(O)c12` [Compound 8, Chrysin]: the IC50 in test [1] (read-out: IC50 vs AdipoR2 (µM) Primary screen, primary screen, 2 µM receptor, 100 nM probe 1, 30 min, 25°C) was 4.9 µM; in test [1] (read-out: IC50 vs AdipoR2 (µM) Validated, validation, 2 µM receptor, 100 nM probe 1, 30 min, 25°C), greater than 5 µM; in test [2] (setting [7]), greater than 5 µM; in test [2] (setting [8]) it was greater than 5 µM. Moreover, the “IC50 vs AdipoR2 (µM) Validated” value in test [1] (validation, 2 µM receptor, 100 nM probe 1, 30 min, 25°C) is listed as “failed in the validation”.

Turning to `COc1cc(/C=C/CO)cc(OC)c1O[C@@H]1O[C@H](CO)[C@@H](O)[C@H](O)[C@H]1O` [Compound 5, Syringin], the IC50 in test [3] (MCF7, 72 h) was 6.8 ± 0.8 µM; in test [1] (setting [9]), 4.6 µM; in test [1] (setting [10]), 4.5 ± 0.5 µM; in test [5] (MDA-MB-231, 72 h) it was greater than 10 µM; in test [2], greater than 5 µM; in test [2] (read-out: IC50 vs AdipoR1 (µM) Validated, validation, 2 µM receptor, 100 nM probe 1, 30 min, 25°C), greater than 5 µM. Besides, the “Effect on PPARα phosphorylation level” value in test [4] was “increased”. In addition, the “Effect on AMPK phosphorylation” value in test [6] is given as “decreased”.

Regarding `CCC[C@H](NC(=O)[C@@H]1CCCN1C(=O)[C@@H](NC(=O)[C@H](N)CC(N)=O)[C@@H](C)CC)C(=O)N[C@@H](CC(C)C)C(=O)N[C@@H](Cc1ccc(O)cc1)C(=O)N[C@H](CO)C(=O)N[C@@H](Cc1ccccc1)C(=O)N[C@@H](C)C(=O)N[C@H](CO)C(N)=O` [Peptide 3, H-DAsn-Ile-Pro-Nva-Leu-Tyr-DSer-Phe-Ala-DSer-NH2, reference compound] (H-[dN]IP[Nva]LY[dS]FA[dS]-NH2), the IC50 in test [1] (positive control validation, titrated against probe 1 – AdipoR2 mixture, read-out: IC50 against AdipoR2, competition with probe 1) is 2.46 ± 0.25 µM.

Regarding `COc1cc(C[C@H]2C(=O)OC[C@@H]2Cc2ccc(OC)c(OC)c2)ccc1O` [Compound 2, (-)-Arctigenin], the IC50 in test [3] (MCF7, 72 h) is greater than 10 µM; in test [1] (setting [9]), greater than 5 µM; in test [1] (setting [10]), greater than 5 µM; in test [5] (MDA-MB-231, 72 h), 4.5 ± 0.4 µM; in test [2] (setting [7]), 2.6 µM; in test [2] (setting [8]), 2.2 ± 0.8 µM. Also, in test [4], the “Effect on PPARα phosphorylation level” value is given as “inhibited”. In test [6], the “Effect on AMPK phosphorylation” value is given as “elevated”.

For `O=C1c2c(O)cc(O)cc2O[C@H](c2ccc(O)c(O)c2)[C@H]1O` [Compound 6, Taxifoliol], the IC50 is 4.4 ± 0.5 µM in test [3] (MCF7, 72 h, 20 µM to 1.2 nM) and greater than 10 µM in test [5] (MDA-MB-231, 72 h, 20 µM to 1.2 nM). The “Effect on PPARα phosphorylation level” value in test [4] is reported as “increased”. The “Effect on AMPK phosphorylation” value in test [6] was “decreased”.

B1: g-Ad: recombinant carboxyl-terminal globular domain of adiponectin with C-terminal His-tag, produced in BL21(DE3) cells; positive control (protein)
chain: GEGAYVYRSAFSVGLETYVTIPNMPIRFTKIFYNQQNHYDGSTGKFHCNIPGLYYFAYHITVYMKDVKVSLFKKDKAMLFTYDQYQENNVDQASGSVLLHLEVGDQVWLQVYGEGERNGLYADNDNDSTFTGFLLYHDTN
modifications: C-terminal His-tag left out
For the molecule B1, the IC50 in test [2] (positive control validation, titrated against probe 1 – AdipoR1 mixture, read-out: IC50 against AdipoR1, competition with probe 1) is 3.4 ± 0.7 µM.
